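Growth conditions: 96-well plates. Treatment: test compound, 48 hours, 5 concentrations. Analysis: linear interpolation between bracketing concentrations; unreached endpoints set to highest concentration. At the GI50, growth is halved. TGI denotes the concentration required for complete inhibition of growth.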

Test systems include RXF 393 renal; UO-31 renal; IGROV1 ovarian; COLO 205 colon; HT29 colon; NCI-H226 lung; SF-268 CNS; HS 578T breast; A498 renal; SR leukemia.
What all share (experiment): inhibition of tumour cell growth, NCI panel, 48 h

`O=c1c2ccccc2n2n1CC(O)C2` (configuration not stated): the TGI in the assay with RXF 393 renal, in the assay on UO-31 renal, with IGROV1 ovarian, with COLO 205 colon, in the assay with HT29 colon and in the assay on NCI-H226 lung was above 100 µM throughout. The TGI with SF-268 CNS, in the assay with HS 578T breast, with A498 renal and with SR leukemia was above 100 µM throughout. The GI50 in the assay on HS 578T breast and in the assay on A498 renal was above 100000 nM each time.
For the compound `CCN1C(NN)=NS(=O)(=O)c2ccccc21`, the TGI in the assay on RXF 393 renal, in the assay on UO-31 renal, in the assay on IGROV1 ovarian, with COLO 205 colon, in the assay with HT29 colon and in the assay with NCI-H226 lung was above 100 µM each time. Also, the TGI with SF-268 CNS, with HS 578T breast, with A498 renal and in the assay on SR leukemia was above 100 µM each time.
For `COc1ccc(-c2nn(-c3cccc(NC(=O)c4ccc5c(c4)OCCO5)c3)cc2-c2ccncc2)cc1Cl`, the GI50 was 1230 nM with RXF 393 renal; 2570 nM in the assay on UO-31 renal; 5860 nM in the assay on IGROV1 ovarian; 1840 nM with COLO 205 colon; 1880 nM in the assay with HT29 colon; 3.3 µM in the assay on NCI-H226 lung. The GI50 in the assay with SF-268 CNS was 3750 nM; in the assay on HS 578T breast it was 1610 nM; in the assay on A498 renal it was 422 nM; in the assay with SR leukemia it was 1100 nM. Further, the TGI with RXF 393 renal is 4.52 µM; in the assay with UO-31 renal, 17.3 µM; in the assay on IGROV1 ovarian, 57.2 µM; in the assay with COLO 205 colon, 4.64 µM; in the assay with HT29 colon, 12.1 µM; in the assay on NCI-H226 lung, above 100 µM. Moreover, the TGI in the assay on SF-268 CNS came to 34 µM; in the assay with HS 578T breast it was 8.13 µM; in the assay on A498 renal, 3.45 µM; in the assay on SR leukemia it was 5.66 µM.
On to `O=C(Nc1ccc(Oc2ccc3nc(NC(=O)c4ccccc4)[nH]c3c2)cc1)Nc1cc(C(F)(F)F)ccc1F`, for which the GI50 in the assay with RXF 393 renal is 1110 nM; with UO-31 renal it was 1310 nM; with IGROV1 ovarian, 1470 nM; in the assay with COLO 205 colon it was 1120 nM; in the assay on HT29 colon, 1380 nM; with NCI-H226 lung it was 0.603 µM. Moreover, the GI50 is 2030 nM in the assay with SF-268 CNS, 1070 nM in the assay with HS 578T breast, 2570 nM in the assay with A498 renal and 3090 nM in the assay with SR leukemia. Besides, the TGI was 8.49 µM in the assay with RXF 393 renal; 15.6 µM with UO-31 renal; above 21.1 µM in the assay with IGROV1 ovarian; 6.7 µM in the assay with COLO 205 colon; above 25 µM in the assay on HT29 colon; 3.97 µM with NCI-H226 lung. Besides, the TGI with SF-268 CNS was 24.4 µM; in the assay with HS 578T breast, 11.6 µM; in the assay on A498 renal, above 25 µM; in the assay on SR leukemia it was 20.2 µM.
For the compound `C=CC[P+](c1ccccc1)(c1ccccc1)c1ccccc1`, the GI50 is 27600 nM in the assay on RXF 393 renal; 84000 nM in the assay on UO-31 renal; 9740 nM with IGROV1 ovarian; 2660 nM in the assay on COLO 205 colon; 3210 nM in the assay with HT29 colon; 5.88 µM in the assay with NCI-H226 lung. The GI50 is 5460 nM in the assay with SF-268 CNS, 10100 nM in the assay with HS 578T breast, 7090 nM in the assay on A498 renal and 1450 nM in the assay on SR leukemia. Also, the TGI in the assay with RXF 393 renal was above 100 µM; in the assay with UO-31 renal it was above 100 µM; in the assay with IGROV1 ovarian, above 100 µM; in the assay on COLO 205 colon it was 14.1 µM; with HT29 colon, above 100 µM; with NCI-H226 lung, above 100 µM. In addition, the TGI in the assay on SF-268 CNS was above 100 µM; in the assay on HS 578T breast, above 100 µM; with A498 renal, 63 µM; in the assay with SR leukemia, above 100 µM.
In the case of `Oc1c(CN2CCCC2)cc(COCc2ccc(Br)cc2)c2cccnc12`, the GI50 in the assay on RXF 393 renal was 1040 nM; in the assay with UO-31 renal, 56.9 nM; with IGROV1 ovarian, 793 nM; with COLO 205 colon, 4620 nM; in the assay with HT29 colon, 3530 nM; in the assay with NCI-H226 lung, 1.05 µM. The GI50 in the assay with SF-268 CNS was 760 nM; in the assay on HS 578T breast it was 2820 nM; in the assay with A498 renal it was 1620 nM; in the assay with SR leukemia, 365 nM. The TGI with RXF 393 renal stood at 3.41 µM; in the assay on UO-31 renal, 0.903 µM; in the assay on IGROV1 ovarian, 5.2 µM; in the assay with COLO 205 colon, 18.7 µM; in the assay with HT29 colon, 13.2 µM; in the assay on NCI-H226 lung, 2.96 µM. Also, the TGI in the assay on SF-268 CNS was 6.28 µM; with HS 578T breast, 17.1 µM; with A498 renal, 5.27 µM; in the assay on SR leukemia, 2.23 µM.
As to `O=S(=O)(O)c1ccc(-c2nnc(-c3ccccn3)nc2-c2ccc(S(=O)(=O)O)o2)o1`, the TGI with RXF 393 renal, in the assay with UO-31 renal, in the assay on IGROV1 ovarian, with COLO 205 colon, with HT29 colon and in the assay with NCI-H226 lung was above 100 µM each time. Also, the TGI in the assay with SF-268 CNS, with HS 578T breast, with A498 renal and in the assay on SR leukemia was above 100 µM throughout.
As for `O=C(CCCN1CCOCC1)Nc1ccc(Cn2nnc3c2C(=O)c2nnn(Cc4ccc(NC(=O)CCCN5CCOCC5)cc4)c2C3=O)cc1`, the GI50 was 4330 nM in the assay on RXF 393 renal; above 100000 nM in the assay on UO-31 renal; 1950 nM in the assay on IGROV1 ovarian; 982 nM with COLO 205 colon; 3310 nM in the assay with HT29 colon; above 100 µM with NCI-H226 lung. Besides, the GI50 with SF-268 CNS was 3210 nM; in the assay on HS 578T breast, 2790 nM; in the assay on A498 renal, above 100000 nM; with SR leukemia it was 2050 nM. Also, the TGI was 38.9 µM in the assay with RXF 393 renal; above 100 µM in the assay on UO-31 renal; 4.62 µM in the assay with IGROV1 ovarian; 2.43 µM with COLO 205 colon; 8.9 µM with HT29 colon; above 100 µM in the assay with NCI-H226 lung. For the same compound, the TGI in the assay with SF-268 CNS was 12.1 µM; in the assay with HS 578T breast, 7.76 µM; in the assay on A498 renal, above 100 µM; in the assay with SR leukemia, 7.86 µM.
Turning to `CN(C)c1ncnc2c1nnn2C1OC(CO)C(O)C1O` (configuration not stated), the GI50 with RXF 393 renal is 386 nM; in the assay on UO-31 renal, 400 nM; in the assay with IGROV1 ovarian, 361 nM; in the assay on COLO 205 colon it was 194 nM; with HT29 colon, 128 nM; with NCI-H226 lung, 4.49 µM. In addition, the GI50 in the assay on SF-268 CNS is 479 nM; in the assay on HS 578T breast it was 632 nM; with A498 renal, 442 nM; in the assay on SR leukemia it was 393 nM. For the same compound, the TGI is above 100 µM with RXF 393 renal; above 100 µM in the assay on UO-31 renal; 15.9 µM in the assay on IGROV1 ovarian; 0.769 µM in the assay with COLO 205 colon; above 24.7 µM with HT29 colon; above 100 µM in the assay with NCI-H226 lung. Also, the TGI in the assay on SF-268 CNS was above 100 µM; with HS 578T breast it was above 100 µM; with A498 renal it was above 100 µM; with SR leukemia it was 7.64 µM.
